These are literature values, as cited in PubChem BioAssay AID1259409 (Chemical Carcinogenesis Research Information System (CCRIS), 2018).

For this data set, the system named is rodent chemically induced tumor inhibition, incidence and multiplicity. Description: CCRIS tumor inhibitor studies.

Molecules are shown by their SMILES.

As to `Cc1c2ccncc2c(C)c2c1[nH]c1ccccc12`, the “tumour outcome (control, treated, inhibition, significance)” value reads like this: (Carcinogen: 7,12-DIMETHYLBENZ[A]ANTHRACENE, 57-97-6, Dose [Inhibitor]: 0, 4.1 NMOL IN 0.2 ML ACETONE APPLIED 5 MIN PRIOR TO CARCINOGEN (STUDY DURATION: 21 WK), Route [Inhibitor]: DERMAL, Species: MOUSE, Strain/Sex: SENCAR/FEMALE, Target Tissue: Type of Lesion: SKIN: PAPILLOMA, Dose [Carcinogen]: 10 NMOL IN 0.2 ML ACETONE ONCE, Promoter: 12-O-TETRADECANOYLPHORBOL-13-ACETATE, 16561-29-8) 79%, 100%, -27%, not calculated; (Carcinogen: 7,12-DIMETHYLBENZ[A]ANTHRACENE, 57-97-6, Dose [Inhibitor]: 0, 41 NMOL IN 0.2 ML ACETONE APPLIED 5 MIN PRIOR TO CARCINOGEN (STUDY DURATION: 21 WK), Route [Inhibitor]: DERMAL, Species: MOUSE, Strain/Sex: SENCAR/FEMALE, Target Tissue: Type of Lesion: SKIN: PAPILLOMA, Dose [Carcinogen]: 10 NMOL IN 0.2 ML ACETONE ONCE, Promoter: 12-O-TETRADECANOYLPHORBOL-13-ACETATE, 16561-29-8) 79%, 87%, -10%, not calculated; (Carcinogen: 7,12-DIMETHYLBENZ[A]ANTHRACENE, 57-97-6, Dose [Inhibitor]: 0, 410 NMOL IN 0.2 ML ACETONE APPLIED 5 MIN PRIOR TO CARCINOGEN (STUDY DURATION: 21 WK), Route [Inhibitor]: DERMAL, Species: MOUSE, Strain/Sex: SENCAR/FEMALE, Target Tissue: Type of Lesion: SKIN: PAPILLOMA, Dose [Carcinogen]: 10 NMOL IN 0.2 ML ACETONE ONCE, Promoter: 12-O-TETRADECANOYLPHORBOL-13-ACETATE, 16561-29-8) 79%, 47%, 41%, not calculated; (Carcinogen: 7,14-DIMETHYLBENZO[A,H]ANTHRACENE, 35335-07-0, Dose [Inhibitor]: 0, 4.1 NMOL IN 0.2 ML ACETONE APPLIED 5 MIN PRIOR TO CARCINOGEN (STUDY DURATION: 21 WK), Route [Inhibitor]: DERMAL, Species: MOUSE, Strain/Sex: SENCAR/FEMALE, Target Tissue: Type of Lesion: SKIN: PAPILLOMA, Dose [Carcinogen]: 47.5 NMOL IN 0.2 ML ACETONE ONCE, Promoter: 12-O-TETRADECANOYLPHORBOL-13-ACETATE, 16561-29-8) 97%, 100%, -3%, not calculated; (Carcinogen: 7,14-DIMETHYLBENZO[A,H]ANTHRACENE, 35335-07-0, Dose [Inhibitor]: 0, 41 NMOL IN 0.2 ML ACETONE APPLIED 5 MIN PRIOR TO CARCINOGEN (STUDY DURATION: 21 WK), Route [Inhibitor]: DERMAL, Species: MOUSE, Strain/Sex: SENCAR/FEMALE, Target Tissue: Type of Lesion: SKIN: PAPILLOMA, Dose [Carcinogen]: 47.5 NMOL IN 0.2 ML ACETONE ONCE, Promoter: 12-O-TETRADECANOYLPHORBOL-13-ACETATE, 16561-29-8) 97%, 93%, 4%, not calculated; (Carcinogen: 7,14-DIMETHYLBENZO[A,H]ANTHRACENE, 35335-07-0, Dose [Inhibitor]: 0, 410 NMOL IN 0.2 ML ACETONE APPLIED 5 MIN PRIOR TO CARCINOGEN (STUDY DURATION: 21 WK), Route [Inhibitor]: DERMAL, Species: MOUSE, Strain/Sex: SENCAR/FEMALE, Target Tissue: Type of Lesion: SKIN: PAPILLOMA, Dose [Carcinogen]: 47.5 NMOL IN 0.2 ML ACETONE ONCE, Promoter: 12-O-TETRADECANOYLPHORBOL-13-ACETATE, 16561-29-8) 97%, 90%, 7%, not calculated. Moreover, the “tumour outcome (control, treated, inhibition, significance)” value is, setting by setting: (Carcinogen: DIBENZO[A,H]ANTHRACENE, 53-70-3, Dose [Inhibitor]: 0, 4.1 NMOL IN 0.2 ML ACETONE APPLIED 5 MIN PRIOR TO CARCINOGEN (STUDY DURATION: 21 WK), Route [Inhibitor]: DERMAL, Species: MOUSE, Strain/Sex: SENCAR/FEMALE, Target Tissue: Type of Lesion: SKIN: PAPILLOMA, Dose [Carcinogen]: 200 NMOL IN 0.2 ML ACETONE ONCE, Promoter: 12-O-TETRADECANOYLPHORBOL-13-ACETATE, 16561-29-8) 100%, 87%, 13%, not calculated; (Carcinogen: DIBENZO[A,H]ANTHRACENE, 53-70-3, Dose [Inhibitor]: 0, 41 NMOL IN 0.2 ML ACETONE APPLIED 5 MIN PRIOR TO CARCINOGEN (STUDY DURATION: 21 WK), Route [Inhibitor]: DERMAL, Species: MOUSE, Strain/Sex: SENCAR/FEMALE, Target Tissue: Type of Lesion: SKIN: PAPILLOMA, Dose [Carcinogen]: 200 NMOL IN 0.2 ML ACETONE ONCE, Promoter: 12-O-TETRADECANOYLPHORBOL-13-ACETATE, 16561-29-8) 100%, 97%, 3%, not calculated; (Carcinogen: DIBENZO[A,H]ANTHRACENE, 53-70-3, Dose [Inhibitor]: 0, 410 NMOL IN 0.2 ML ACETONE APPLIED 5 MIN PRIOR TO CARCINOGEN (STUDY DURATION: 21 WK), Route [Inhibitor]: DERMAL, Species: MOUSE, Strain/Sex: SENCAR/FEMALE, Target Tissue: Type of Lesion: SKIN: PAPILLOMA, Dose [Carcinogen]: 200 NMOL IN 0.2 ML ACETONE ONCE, Promoter: 12-O-TETRADECANOYLPHORBOL-13-ACETATE, 16561-29-8) 100%, 97%, 3%, not calculated.

On to `N[C@@H]1C[C@H]1c1ccccc1`, for which the “tumour outcome (control, treated, inhibition, significance)” value is 78%, 88%, -13%, not calculated (Carcinogen: N-METHYL-N-NITROSOUREA, 684-93-5, Dose [Inhibitor]: 10 MG/KG OF HIGH (20%) FAT DIET BEGINNING 1 WK POST CARCINOGEN DOSE AND CONTINUING FOR DURATION OF STUDY (STUDY DURATION, Route [Inhibitor]: ORAL, Species: RAT, Strain/Sex: SPRAGUE-DAWLEY/FEMALE, Target Tissue: Type of Lesion: MAMMARY GLAND: TUMOR, Dose [Carcinogen]: 40 MG/KG ONCE, Promoter: NONE USED) and 78%, 83%, -6%, not calculated (Carcinogen: N-METHYL-N-NITROSOUREA, 684-93-5, Dose [Inhibitor]: 10 MG/KG OF LOW (3%) FAT DIET BEGINNING 1 WK POST CARCINOGEN DOSE AND CONTINUING FOR DURATION OF STUDY (STUDY DURATION:, Route [Inhibitor]: ORAL, Species: RAT, Strain/Sex: SPRAGUE-DAWLEY/FEMALE, Target Tissue: Type of Lesion: MAMMARY GLAND: TUMOR, Dose [Carcinogen]: 40 MG/KG ONCE, Promoter: NONE USED).

On to `CN1[C@@H]2CC[C@H]1CC(OC(=O)C(CO)c1ccccc1)C2` (stereo partly specified), for which, under “Carcinogen: N-METHYL-N'-NITRO-N-NITROSOGUANIDINE, 70-25-7, Dose [Inhibitor]: 0, 0.5 MG/KG IN OLIVE OIL SUSPENSION 1/D BEGINNING 1 WK POST LAST CARCINOGEN DOSE AND CONTINUING FOR DURATION OF STUDY (, Species: RAT, Strain/Sex: WISTAR/MALE, Target Tissue: Type of Lesion: GLANDULAR STOMACH: ADENOCARCINOMA, Dose [Carcinogen]: 50 UG/ML IN DRINKING WATER FOR 25 WK, Promoter: NONE USED”, the “tumour outcome (control, treated, inhibition, significance)” value was 15/18 (83%), 15/19 (79%), 5%, not calculated.

As to `N[C@@H](CCC(=O)N[C@@H](CS)C(=O)NCC(=O)O)C(=O)O`, the “tumour outcome (control, treated, inhibition, significance)” value by setting is: (Carcinogen: TRANS-5-AMINO-3-[2-(5-NITRO-2-FURYL)VINYL]-1,2,4-OXADIAZOLE;SQL8506, 28754-68-9, Carcinogen: TRANS-5-AMINO-3-[2-(5-NITRO-2-FURYL)VINYL]-1,2,4-OXADIAZOLE;SQL8506, 28754-68-9, Dose [Inhibitor]: 400 MG/KG 16 HR BEFORE THE 1ST CARCINOGEN DOSE FOLLOWED BY ADDITIONAL INJECTIONS IMMEDIATELY BEFORE EACH DOSE OF CARCINO, Route [Inhibitor]: INTRAPERITONEAL, Species: MOUSE, Strain/Sex: CD-1/FEMALE, Target Tissue: Type of Lesion: HEMATOPOIETIC SYSTEM: MYELOID LEUKEMIA, Dose [Carcinogen]: 1 G/KG 2/D FOR 5 D EVERY 4 WK FOR 3 COURSES OF TREATMENT, Promoter: NONE USED) 7/137 (5%), 2/35 (6%), -20%, not calculated; (Carcinogen: TRANS-5-AMINO-3-[2-(5-NITRO-2-FURYL)VINYL]-1,2,4-OXADIAZOLE;SQL8506, 28754-68-9, Carcinogen: TRANS-5-AMINO-3-[2-(5-NITRO-2-FURYL)VINYL]-1,2,4-OXADIAZOLE;SQL8506, 28754-68-9, Dose [Inhibitor]: 400 MG/KG 16 HR BEFORE THE 1ST CARCINOGEN DOSE FOLLOWED BY ADDITIONAL INJECTIONS IMMEDIATELY BEFORE EACH DOSE OF CARCINO, Route [Inhibitor]: INTRAPERITONEAL, Species: MOUSE, Strain/Sex: CD-1/FEMALE, Target Tissue: Type of Lesion: LYMPHOID TISSUE: NONTHYMIC LYMPHOMA, Dose [Carcinogen]: 1 G/KG 2/D FOR 5 D EVERY 4 WK FOR 3 COURSES OF TREATMENT, Promoter: NONE USED) 8/137 (6%), 3/35 (8%), -33%, not calculated; (Carcinogen: TRANS-5-AMINO-3-[2-(5-NITRO-2-FURYL)VINYL]-1,2,4-OXADIAZOLE;SQL8506, 28754-68-9, Carcinogen: TRANS-5-AMINO-3-[2-(5-NITRO-2-FURYL)VINYL]-1,2,4-OXADIAZOLE;SQL8506, 28754-68-9, Dose [Inhibitor]: 400 MG/KG 16 HR BEFORE THE 1ST CARCINOGEN DOSE FOLLOWED BY ADDITIONAL INJECTIONS IMMEDIATELY BEFORE EACH DOSE OF CARCINO, Route [Inhibitor]: INTRAPERITONEAL, Species: MOUSE, Strain/Sex: CD-1/FEMALE, Target Tissue: Type of Lesion: LYMPHOID TISSUE: THYMIC LYMPHOMA, Dose [Carcinogen]: 1 G/KG 2/D FOR 5 D EVERY 4 WK FOR 3 COURSES OF TREATMENT, Promoter: NONE USED) 22/137 (16%), 2/35 (6%), 62%, not calculated; (Carcinogen: TRANS-5-AMINO-3-[2-(5-NITRO-2-FURYL)VINYL]-1,2,4-OXADIAZOLE;SQL8506, 28754-68-9, Carcinogen: TRANS-5-AMINO-3-[2-(5-NITRO-2-FURYL)VINYL]-1,2,4-OXADIAZOLE;SQL8506, 28754-68-9, Dose [Inhibitor]: 400 MG/KG 16 HR BEFORE THE 1ST CARCINOGEN DOSE FOLLOWED BY ADDITIONAL INJECTIONS IMMEDIATELY BEFORE EACH DOSE OF CARCINO, Route [Inhibitor]: INTRAPERITONEAL, Species: MOUSE, Strain/Sex: CD-1/FEMALE, Target Tissue: Type of Lesion: STOMACH: SQUAMOUS CARCINOMA, Dose [Carcinogen]: 1 G/KG 2/D FOR 5 D EVERY 4 WK FOR 3 COURSES OF TREATMENT, Promoter: NONE USED) 60/137 (44%), 12/35 (34%), 23%, not calculated.
